Data taken from the supplement of paper PMC11061612.

Key:
[1] = test system: REH (B-Lymphoblastic Leukemia); experiment: combination Emax (second highest fraction inhibited in the dose matrix, 72 h); higher = more inhibition; extreme values may be limits of the assay
Outline: (§1)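 Cell lines grown in DMEM/F12 or RPMI with 10% FBS were plated in 1536-well plates and held 24 hours at 37°C, 5% CO2 before 72 hours of exposure to two-drug dose matrices, with DMSO typically at 0.2%. CellTiter-Glo 2.0 luminescence gave viability, which was converted to inhibition. Vehicle wells were set to 0 and blank wells to 1. Combination Emax is the second-highest inhibition in the matrix, and Bliss excess is the observed combination effect minus the expected EA + EB − EA·EB, where EA and EB are the single-agent effects.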

[2] = test system: WM793B (Melanoma); experiment: as above
Outline: as §1

[3] = test system: A2058 (Melanoma); experiment: as above
Outline: as §1

[4] = test system: SHP-77 (Small Cell Lung Carcinoma); experiment: as above
Outline: as §1

[5] = test system: WM278 (Melanoma); experiment: as above
Outline: as §1

[6] = test system: CAL-120 (Breast Carcinoma); experiment: as above
Outline: as §1

[7] = test system: TE-8 (Esophageal Squamous Cell Carcinoma); experiment: as above
Outline: as §1

[8] = test system: MKN45 (Gastric Carcinoma); experiment: as above
Outline: as §1

[9] = test system: SU-DHL-10 (B-Cell Non-Hodgkin's Lymphoma); experiment: as above
Outline: as §1

[10] = test system: RERF-LC-Sq1 (Squamous Cell Lung Carcinoma); experiment: as above
Outline: as §1

[11] = test system: OVMIU (Ovarian Carcinoma); experiment: as above
Outline: as §1

[12] = test system: MFE-280 (Endometrial Carcinoma); experiment: as above
Outline: as §1

[13] = test system: IST-MES1 (Mesothelioma); experiment: as above
Outline: as §1

[14] = test system: COLO-680N (Esophageal Squamous Cell Carcinoma); experiment: as above
Outline: as §1

[15] = test system: CAL-62 (Thyroid Gland Carcinoma); experiment: as above
Outline: as §1

[16] = test system: RKN (Other Solid Carcinomas); experiment: as above
Outline: as §1

[17] = test system: 23132-87 (Gastric Carcinoma); experiment: as above
Outline: as §1

[18] = test system: PANC-03-27 (Pancreatic Carcinoma); experiment: Bliss excess, mean over the matrix (fraction); higher = more synergy
Outline: as §1

[19] = test system: SF539 (Glioblastoma); experiment: as above
Outline: as §1

[20] = test system: RKN (Other Solid Carcinomas); experiment: as above
Outline: as §1
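For Bliss excess, mean over the matrix in this document: after 72 h of two-drug dosing.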

Structure (SMILES): C=CCn1c(=O)c2cnc(Nc3ccc(N4CCN(C)CC4)cc3)nc2n1-c1cccc(C(C)(C)O)n1 [AZD1775] + O=C(c1cc(Cc2n[nH]c(=O)c3ccccc23)ccc1F)N1CCN(C(=O)C2CC2)CC1 [Olaparib] (first compound max 1 µM, partner max 10 µM)
- combination Emax [1]: 0.835
- combination Emax [2]: 0.501
- combination Emax [3]: 0.284
- combination Emax [4]: 0.443
- combination Emax [5]: 0.209
- combination Emax [6]: 0.396
- combination Emax [7]: 0.865
- combination Emax [8]: 0.775
- combination Emax [9]: 0.962
- combination Emax [10]: 0.675
- combination Emax [11]: 0.569
- combination Emax [12]: 0.601
- combination Emax [13]: 0.334
- combination Emax [14]: 0.283
- combination Emax [15]: 0.796
- combination Emax [16]: 0.355
- combination Emax [17]: 0.605
- Bliss excess [18]: -0.032
- Bliss excess [19]: 0.0258
- Bliss excess [20]: -0.0138

Structure (SMILES): CCN(CCO)CCCOc1ccc2c(Nc3cc(CC(=O)Nc4cccc(F)c4)[nH]n3)ncnc2c1 [AZD2811] + C=CCn1c(=O)c2cnc(Nc3ccc(N4CCN(C)CC4)cc3)nc2n1-c1cccc(C(C)(C)O)n1 [AZD1775] (first compound max 1 µM, partner max 1 µM)
- combination Emax [1]: 0.741
- combination Emax [2]: 0.497
- combination Emax [3]: 0.15
- combination Emax [4]: 0.415
- combination Emax [5]: 0.171
- combination Emax [6]: 0.368
- combination Emax [7]: 0.781
- combination Emax [8]: 0.631
- combination Emax [9]: 1
- combination Emax [10]: 0.68
- combination Emax [11]: 0.463
- combination Emax [12]: 0.521
- combination Emax [13]: 0.27
- combination Emax [14]: 0.178
- combination Emax [15]: 0.787
- combination Emax [16]: 0.281
- combination Emax [17]: 0.656
- Bliss excess [18]: 0.001
- Bliss excess [19]: 0.0972
- Bliss excess [20]: -0.0017

Structure (SMILES): CCN(CCO)CCCOc1ccc2c(Nc3cc(CC(=O)Nc4cccc(F)c4)[nH]n3)ncnc2c1 [AZD2811] + C[C@@H]1COCCN1C2=NC(=NC(=C2)C3(CC3)[S@](=N)(=O)C)C4=C5C=CNC5=NC=C4 [AZD6738] (first compound max 1 µM, 7x7, partner max 10 µM)
- combination Emax [1]: 0.787
- combination Emax [2]: 0.769
- combination Emax [3]: 0.246
- combination Emax [4]: 0.496
- combination Emax [5]: 0.332
- combination Emax [6]: 0.396
- combination Emax [7]: 0.781
- combination Emax [8]: 0.732
- combination Emax [9]: 0.985
- combination Emax [10]: 0.791
- combination Emax [11]: 0.457
- combination Emax [12]: 0.436
- combination Emax [13]: 0.345
- combination Emax [14]: 0.309
- combination Emax [15]: 0.741
- combination Emax [16]: 0.206
- combination Emax [17]: 0.811
- Bliss excess [18]: -0.123
- Bliss excess [19]: -0.0262
- Bliss excess [20]: 0.0009

Structure (SMILES): CCN(CCO)CCCOc1ccc2c(Nc3cc(CC(=O)Nc4cccc(F)c4)[nH]n3)ncnc2c1 [AZD2811] + O=C(c1cc(Cc2n[nH]c(=O)c3ccccc23)ccc1F)N1CCN(C(=O)C2CC2)CC1 [Olaparib] (first compound max 1 µM, 7x7, partner max 10 µM)
- combination Emax [1]: 0.487
- combination Emax [2]: 0.359
- combination Emax [3]: 0.218
- combination Emax [4]: 0.185
- combination Emax [5]: 0.166
- combination Emax [6]: 0.293
- combination Emax [7]: 0.335
- combination Emax [8]: 0.28
- combination Emax [9]: 0.745
- combination Emax [10]: 0.219
- combination Emax [11]: 0.295
- combination Emax [12]: 0.339
- combination Emax [13]: 0.29
- combination Emax [14]: 0.196
- combination Emax [15]: 0.277
- combination Emax [16]: 0.228
- combination Emax [17]: 0.246
- Bliss excess [18]: -0.0161
- Bliss excess [19]: 0.0434
- Bliss excess [20]: 0.0029

Structure (SMILES): CN(CCO)CC[C@H](CSc1ccccc1)Nc1ccc(S(=O)(=O)NC(=O)c2ccc(N3CCC([C@@H](O)c4ccccc4-c4ccc(Cl)cc4)CC3)cc2)cc1S(=O)(=O)C(F)(F)F [AZD4320] + C=CCn1c(=O)c2cnc(Nc3ccc(N4CCN(C)CC4)cc3)nc2n1-c1cccc(C(C)(C)O)n1 [AZD1775] (first compound max 1 µM, partner max 1 µM)
- combination Emax [1]: 1
- combination Emax [2]: 0.622
- combination Emax [3]: 0.355
- combination Emax [4]: 0.65
- combination Emax [5]: 0.765
- combination Emax [6]: 0.854
- combination Emax [7]: 0.932
- combination Emax [8]: 0.826
- combination Emax [9]: 0.992
- combination Emax [10]: 0.683
- combination Emax [11]: 0.976
- combination Emax [12]: 0.953
- combination Emax [13]: 0.461
- combination Emax [14]: 0.223
- combination Emax [15]: 0.878
- combination Emax [16]: 0.315
- combination Emax [17]: 0.846
- Bliss excess [18]: 0.0079
- Bliss excess [19]: -0.0518
- Bliss excess [20]: -0.0357

Structure (SMILES): CN(CCO)CC[C@H](CSc1ccccc1)Nc1ccc(S(=O)(=O)NC(=O)c2ccc(N3CCC([C@@H](O)c4ccccc4-c4ccc(Cl)cc4)CC3)cc2)cc1S(=O)(=O)C(F)(F)F [AZD4320] + CN(C)CCCOc1ccc(-c2ccc3ncc4c(c3c2)n(C2CCOCC2)c(=O)n4C)cn1 [AZD0156] (first compound max 1 µM, 7x7, partner max 1 µM)
- combination Emax [1]: 1
- combination Emax [2]: 0.251
- combination Emax [3]: 0.103
- combination Emax [4]: 0.585
- combination Emax [5]: 0.568
- combination Emax [6]: 0.744
- combination Emax [7]: 0.181
- combination Emax [8]: 0.316
- combination Emax [9]: 0.144
- combination Emax [10]: 0.194
- combination Emax [11]: 0.771
- combination Emax [12]: 0.891
- combination Emax [13]: 0.104
- combination Emax [14]: 0.137
- combination Emax [15]: 0.228
- combination Emax [16]: 0.102
- combination Emax [17]: 0.148
- Bliss excess [18]: -0.0459
- Bliss excess [19]: -0.0163
- Bliss excess [20]: -0.0417
